Data taken from ChEMBL document CHEMBL1148365, “Rational design of new antituberculosis agents: receptor-independent four-dimensional quantitative structure-activity relationship analysis of a set of isoniazid derivatives” (2004).

Test system: Mycobacterium tuberculosis
Test: Minimum inhibitory concentration against Mycobacterium tuberculosis var. bovis strain at 310K, with value expressed as pMIC i.e. -log of MIC (ug/mL).
Format: functional

| Structure (SMILES) | pMIC |
| --- | --- |
| NNC(=O)c1c[nH]cn1 | 2.7 |
| Cn1cncc1C(=O)NN | 0.52 |
| NNC(=O)/C=C/c1ccccc1 | 3.4 |
| NNC(=O)c1ccco1 | 4.22 |
| NNC(=O)C(O)c1ccccc1 (stereo unspecified) | 1.4 |
| NNC(=O)c1c[nH]c(S)n1 | 0.6 |
| NNC(=O)c1cnccn1 [PYRAZINE CARBOXYLIC ACID HYDRAZIDE] | 2.82 |
| NNC(=O)Cc1ccccc1 | 1.92 |
| NNC(=O)c1ccc(Br)cc1 | 1.92 |
| NNC(=O)Cc1ccc(Cl)cc1 | 2 |
| NNC(=O)c1cccc([N+](=O)[O-])c1 | 3.22 |
| NNC(=O)c1ccncn1 | 1.7 |
| NNC(=O)c1ccnc(Br)c1 | 1.82 |
| NNC(=O)c1ccc([N+](=O)[O-])cc1 | 1.92 |
| COc1cc(C(=O)NN)ccc1O | 1.52 |
| CN1CCC(C(=O)NN)CC1 | 0.22 |
| NNC(=O)c1ccc(Cl)cc1 | 2.52 |
| Cc1ncc(C(=O)NN)c(O)n1 | 0.4 |

| Structure (SMILES) | pMIC |
| --- | --- |
| NNC(=O)c1cscn1 | 1.82 |
| NNC(=O)c1cccc(N)c1 | 2.52 |
| NNC(=O)c1ccccn1 | 3.82 |
| NNC(=O)c1ccccc1N | 1.52 |
| NNC(=O)c1ccccc1[N+](=O)[O-] | 0.52 |
| NNC(=O)c1cncs1 | 2 |
| CN(C)C(=O)N1CCC(C(=O)NN)CC1 | 0.22 |
| NNC(=O)c1ccnc(F)c1 | 3.4 |
| NNC(=O)C1Cc2ccccc2O1 (stereo unspecified) | 0.65 |
| NNC(=O)Cc1ccncc1 | 1 |
| Cc1cnccc1C(=O)NN | 0.7 |
| NNC(=O)C1CCNCC1 | 0.22 |
| NNC(=O)c1ccc(O)cc1 | 1.92 |
| NNC(=O)c1ccncc1N | 2.82 |
| NNC(=O)c1ccncc1 [ISONIAZID] | 4.2 |
| NNC(=O)c1ccnc2ccccc12 | 1.1 |
| NNC(=O)c1ccccc1 [BENZOIC ACID HYDRAZIDE] | 3.22 |
| NNC(=O)c1cccnc1 [NICOTINIC ACID HYDRAZIDE] | 2.7 |
